Assay results from ChEMBL document CHEMBL5321264, “Proteomic Changes in Methicillin-Resistant Staphylococcus aureus Exposed to Cannabinoids” (2023).
Converted amounts (≈) assume the structure as drawn. The source made the active and inactive calls. The calls are words filed in the database; no cut-off is given here.

How the values were obtained:
Staphylococcus aureus [1] = experiment: Bactericidal activity against methicillin-resistant Staphylococcus aureus CC398 assessed as reduction in bacterial viability measured after 15 hrs by real-time microscopic analysis; format: functional
Staphylococcus aureus [2] = experiment: Antibacterial activity against methicillin-resistant Staphylococcus aureus CC398 assessed as reduction in bacterial growth measured after 4 hrs by real-time microscopic analysis; format: functional
[3] = Selectivity ratio of MBC for bactericidal activity against methicillin-resistant Staphylococcus aureus CC398 to MIC for antibacterial activity against methicillin-resistant Staphylococcus aureus CC398; format: functional
Staphylococcus aureus [4] = experiment: Potentiation of methicillin-induced antibacterial activity against methicillin-resistant Staphylococcus aureus CC398 assessed as ratio of methicillin MBC to MIC at 2.5 microg/ml; format: functional; settings: dose 2.5 µg/ml
Staphylococcus aureus [5] = experiment: Potentiation of methicillin-induced antibacterial activity against methicillin-resistant Staphylococcus aureus CC398 assessed as methicillin MIC at 2.5 microg/ml; format: functional; settings: dose 2.5 µg/ml
Staphylococcus aureus [6] = experiment: Potentiation of methicillin-induced antibacterial activity against methicillin-resistant Staphylococcus aureus CC398 assessed as methicillin MBC at 2.5 microg/ml; format: functional; settings: dose 2.5 µg/ml
Staphylococcus aureus [7] = experiment: Potentiation of methicillin-induced antibacterial activity against methicillin-resistant Staphylococcus aureus CC398 assessed as reduction in methicillin MIC at 2.5 microg/ml relative to control; format: functional; parameters: scale not given: the % may be the effect or the level left; settings: dose 2.5 µg/ml
Staphylococcus aureus [8] = experiment: Antibacterial activity against methicillin-resistant Staphylococcus aureus CC398 assessed as increase in cell density at 1.25 microg/ml by real-time microscopic analysis relative to control; format: functional; settings: dose 1.25 µg/ml; time 15 hrs
Staphylococcus aureus [9] = experiment: Upregulation of ATP synthase subunit beta expression in methicillin-resistant Staphylococcus aureus CC398 in the presence of methicillin by gene ontology analysis; format: functional
Staphylococcus aureus [10] = experiment: Upregulation of GTP-binding protein typeA expression in methicillin-resistant Staphylococcus aureus CC398 in the presence of methicillin by gene ontology analysis; format: functional
Staphylococcus aureus [11] = experiment: Upregulation of proline-tRNA ligase expression in methicillin-resistant Staphylococcus aureus CC398 in the presence of methicillin by gene ontology analysis; format: functional
Staphylococcus aureus [12] = experiment: Upregulation of elongation factor P expression in methicillin-resistant Staphylococcus aureus CC398 in the presence of methicillin by gene ontology analysis; format: functional
Staphylococcus aureus [13] = experiment: Downregulation of isocitrate dehydrogenase expression in methicillin-resistant Staphylococcus aureus CC398 in the presence of methicillin by gene ontology analysis; format: functional
Staphylococcus aureus [14] = experiment: Downregulation of succinate-CoA synthase expression in methicillin-resistant Staphylococcus aureus CC398 in the presence of methicillin by gene ontology analysis; format: functional
Staphylococcus aureus [15] = experiment: Downregulation of phosphoglycerate kinase expression in methicillin-resistant Staphylococcus aureus CC398 in the presence of methicillin by gene ontology analysis; format: functional
Staphylococcus aureus [16] = experiment: Antibacterial activity against methicillin-resistant Staphylococcus aureus CC398 assessed as inhibition of bacterial growth at higher concentration incubated for 15 hrs by real-time microscopic analysis; format: functional, organism-based
Staphylococcus aureus [17] = experiment: Antibacterial activity against methicillin-resistant Staphylococcus aureus CC398 assessed as inhibition of bacterial growth at lower concentration incubated for 15 hrs by real-time microscopic analysis; format: functional, organism-based
Staphylococcus aureus [18] = experiment: Upregulation of peptide chain release factor 1 expression in methicillin-resistant Staphylococcus aureus CC398 in the presence of methicillin; format: functional
Staphylococcus aureus [19] = experiment: Upregulation of ATP synthase subunit B expression in methicillin-resistant Staphylococcus aureus CC398 in the presence of methicillin by gene ontology analysis; format: functional
Staphylococcus aureus [20] = experiment: Upregulation of ATP synthase subunit alpha expression in methicillin-resistant Staphylococcus aureus CC398 in the presence of methicillin by gene ontology analysis; format: functional
Staphylococcus aureus [21] = experiment: Downregulation of superoxide dismutase expression in methicillin-resistant Staphylococcus aureus CC398 in the presence of methicillin by gene ontology analysis; format: functional
Staphylococcus aureus [22] = experiment: Upregulation of enolase expression in methicillin-resistant Staphylococcus aureus CC398 by gene ontology analysis; format: functional
Staphylococcus aureus [23] = experiment: Downregulation of catalase expression in methicillin-resistant Staphylococcus aureus CC398 in the presence of methicillin by gene ontology analysis; format: functional
Staphylococcus aureus [24] = experiment: Antibacterial activity against methicillin-resistant Staphylococcus aureus CC398 assessed as increase in cell density at 2.5 microg/ml measured after 15 hrs by real-time microscopic analysis relative to control; format: functional; settings: dose 2.5 µg/ml
Staphylococcus aureus [25] = experiment: Upregulation of PBP2 protein expression in methicilin-resistant Staphylococcus aureus CC398 in the presence of methicillin by gene ontology analysis; format: functional
Staphylococcus aureus [26] = experiment: Upregulation of GrpE protein expression in methicillin-resistant Staphylococcus aureus CC398 in the presence of methicillin by gene ontology analysis; format: functional
Staphylococcus aureus [27] = experiment: Downregulation of aminoacyl-tRNA-synthetase expression in methicillin-resistant Staphylococcus aureus CC398 in the presence of methicillin by gene ontology analysis; format: functional
Staphylococcus aureus [28] = experiment: Downregulation of Threonine synthase expression in methicillin-resistant Staphylococcus aureus CC398 in the presence of methicillin by gene ontology analysis; format: functional
Staphylococcus aureus [29] = experiment: Downregulation of cysteine synthase expression in methicillin-resistant Staphylococcus aureus CC398 in the presence of methicillin by gene ontology analysis; format: functional
Staphylococcus aureus [30] = experiment: Downregulation of serine hydroxy methyltransferase expression in methicillin-resistant Staphylococcus aureus CC398 in the presence of methicillin by gene ontology analysis; format: functional
Staphylococcus aureus [31] = experiment: Downregulation of Carbamoyl-phosphate synthase small chain expression in methicillin-resistant Staphylococcus aureus CC398 in the presence of methicillin by gene ontology analysis; format: functional
Staphylococcus aureus [32] = experiment: Upregulation of ATP-dependent protease ATPase subunit […] expression in methicillin-resistant Staphylococcus aureus CC398 in the presence of methicillin by gene ontology analysis; format: functional
Staphylococcus aureus [33] = experiment: Downregulation of pyruvate kinase expression in methicillin-resistant Staphylococcus aureus CC398 in the presence of methicillin by gene ontology analysis; format: functional
Staphylococcus aureus [34] = experiment: Antibacterial activity against methicillin-resistant Staphylococcus aureus CC398 assessed as increase in cell density at 5 microg/ml measured after 15 hrs by real-time microscopic analysis relative to control; format: functional; settings: dose 5 µg/ml
Staphylococcus aureus [35] = experiment: Downregulation of fructose-1,6-bisphosphate aldolase expression in methicillin-resistant Staphylococcus aureus CC398 in the presence of methicillin by gene ontology analysis; format: functional
Staphylococcus aureus [36] = experiment: Downregulation of 2,3-bisphosphoglycerate-independent phosphoglycerate mutase expression in methicillin-resistant Staphylococcus aureus CC398 in the presence of methicillin by gene ontology analysis; format: functional
Staphylococcus aureus [37] = experiment: Downregulation of elongation factor Tu expression in methicillin-resistant Staphylococcus aureus CC398 in the presence of methicillin by gene ontology analysis; format: functional
Staphylococcus aureus [38] = experiment: Downregulation of elongation factor G expression in methicillin-resistant Staphylococcus aureus CC398 in the presence of methicillin by gene ontology analysis; format: functional
Staphylococcus aureus [39] = experiment: Downregulation of arginine-tRNA-synthetase expression in methicillin-resistant Staphylococcus aureus CC398 in the presence of methicillin by gene ontology analysis; format: functional
Staphylococcus aureus [40] = experiment: Potentiation of methicillin-induced antibacterial activity against methicillin-resistant Staphylococcus aureus CC398 assessed as ratio of methicillin MBC to MIC at 7.5 microg/ml; format: functional; settings: dose 7.5 µg/ml
Staphylococcus aureus [41] = experiment: Potentiation of methicillin-induced antibacterial activity against methicillin-resistant Staphylococcus aureus CC398 assessed as methicillin MIC at 7.5 microg/ml; format: functional; settings: dose 7.5 µg/ml
Staphylococcus aureus [42] = experiment: Potentiation of methicillin-induced antibacterial activity against methicillin-resistant Staphylococcus aureus CC398 assessed as methicillin MBC at 7.5 microg/ml; format: functional; settings: dose 7.5 µg/ml
Staphylococcus aureus [43] = experiment: Upregulation of DNA-directed RNA polymerase subunit omega expression in Staphylococcus aureus CC398 in the presence of methicillin by gene ontology analysis; format: functional
Staphylococcus aureus [44] = experiment: Upregulation of SepF expression in Staphylococcus aureus CC398 in the presence of methicillin by gene ontology analysis; format: functional
Staphylococcus aureus [45] = experiment: Downregulation of isoleucine-tRNA-synthetase expression in methicillin-resistant Staphylococcus aureus CC398 in the presence of methicillin by gene ontology analysis; format: functional
Staphylococcus aureus [46] = experiment: Downregulation of valine-tRNA-synthetase expression in methicillin-resistant Staphylococcus aureus CC398 in the presence of methicillin by gene ontology analysis; format: functional
Staphylococcus aureus [47] = experiment: Antibacterial activity against methicillin-resistant Staphylococcus aureus CC398 assessed as increase in cell density at 1 microg/ml measured after 15 hrs by real-time microscopic analysis relative to control; format: functional; settings: dose 1 µg/ml
Staphylococcus aureus [48] = experiment: Antibacterial activity against methicillin-resistant Staphylococcus aureus CC398 assessed as increase in cell growth rate by measuring maximal response at 1 microg/ml after 15 hrs by real-time microscopic analysis relative to control; format: functional; settings: dose 1 µg/ml
Staphylococcus aureus [49] = experiment: Upregulation of ATP synthase subunit beta expression in Staphylococcus aureus CC398 by gene ontology analysis; format: functional
Staphylococcus aureus [50] = experiment: Upregulation of ATP synthase subunit b expression in Staphylococcus aureus CC398 by gene ontology analysis; format: functional
Staphylococcus aureus [51] = experiment: Upregulation of ATP synthase subunit alpha expression in Staphylococcus aureus CC398 by gene ontology analysis; format: functional
Staphylococcus aureus [52] = experiment: Upregulation of PBP2 protein expression in Staphylococcus aureus CC398 by gene ontology analysis; format: functional

| SMILES | MBC (Staphylococcus aureus [1]) [µg/mL] | MIC (Staphylococcus aureus [2]) [µg/mL] | Ratio [3] | Ratio (Staphylococcus aureus [4]) | MBC (Staphylococcus aureus [5]) [µg/mL] | MIC (Staphylococcus aureus [6]) [µg/mL] | Activity (Staphylococcus aureus [7]) [%] | Activity (Staphylococcus aureus [9]) | Activity (Staphylococcus aureus [15]) | Activity (Staphylococcus aureus [16]) | Activity (Staphylococcus aureus [17]) | Activity (Staphylococcus aureus [19]) | Activity (Staphylococcus aureus [20]) | Activity (Staphylococcus aureus [21]) | Activity (Staphylococcus aureus [22]) | Activity (Staphylococcus aureus [23]) | Activity (Staphylococcus aureus [26]) | Activity (Staphylococcus aureus [33]) | other results |
| --- | --- | --- | --- | --- | --- | --- | --- | --- | --- | --- | --- | --- | --- | --- | --- | --- | --- | --- | --- |
| C=C(C)[C@@H]1CCC(C)=C[C@H]1c1c(O)cc(CCCCC)cc1O [CANNABIDIOL] | 5 (≈ 15.9 µM) | 2.5 (≈ 7.95 µM) | 2 | 16 | 1 | 0.063 | 87.5 | Active | Active | Active | inactive | Active | Active | Active | Active | Active | – | – | Activity (Staphylococcus aureus [8]): 19%; Activity (Staphylococcus aureus [10]): Active; Activity (Staphylococcus aureus [11]): Active; Activity (Staphylococcus aureus [12]): Active; Activity (Staphylococcus aureus [13]): Active; Activity (Staphylococcus aureus [14]): Active; Activity (Staphylococcus aureus [18]): Active |
| CCCCCc1cc(O)c2c(c1)OC(C)(C)c1ccc(C)cc1-2 [CANNABINOL] | 7.5 (≈ 24.2 µM) | 2.5 (≈ 8.05 µM) | 3 | 16 | 1 | 0.063 | 87.5 | Active | Active | Active | inactive | Active | Active | Active | Active | Active | Active | Active | Activity (Staphylococcus aureus [24]): 29%; Activity (Staphylococcus aureus [25]): Active; Activity (Staphylococcus aureus [27]): Active; Activity (Staphylococcus aureus [28]): Active; Activity (Staphylococcus aureus [29]): Active; Activity (Staphylococcus aureus [30]): Active; Activity (Staphylococcus aureus [31]): Active; Activity (Staphylococcus aureus [32]): Active |
| CCCCCc1cc(O)c2c(c1)OC(C)(C)[C@@H]1CCC(C)=C[C@@H]21 [DRONABINOL] | 20 (≈ 63.6 µM) | 7.5 (≈ 23.8 µM) | 2.67 | – | – | – | 93.8 | Active | Active | Active | inactive | Active | Active | Active | Active | – | Active | Active | Activity (Staphylococcus aureus [34]): 45%; Activity (Staphylococcus aureus [35]): Active; Activity (Staphylococcus aureus [36]): Active; Activity (Staphylococcus aureus [37]): Active; Activity (Staphylococcus aureus [38]): Active; Activity (Staphylococcus aureus [39]): Active; Ratio (Staphylococcus aureus [40]): 8; MIC (Staphylococcus aureus [41]): 0.063 µg/mL; MBC (Staphylococcus aureus [42]): 0.5 µg/mL; Activity (Staphylococcus aureus [43]): Active; Activity (Staphylococcus aureus [44]): Active; Activity (Staphylococcus aureus [45]): Active; Activity (Staphylococcus aureus [46]): Active |
| COc1cccc(OC)c1C(=O)N[C@@H]1C(=O)N2[C@@H]1SC(C)(C)[C@@H]2C(=O)O [METHICILLIN] | 8 (≈ 21 µM) | 4 (≈ 10.5 µM) | – | – | – | – | – | – | – | – | – | – | – | – | – | – | – | – | Activity (Staphylococcus aureus [47]): 43%; Activity (Staphylococcus aureus [48]): 143%; Activity (Staphylococcus aureus [49]): Active; Activity (Staphylococcus aureus [50]): Active; Activity (Staphylococcus aureus [51]): Active; Activity (Staphylococcus aureus [52]): Active |
